Read-outs that look alike come from different tables or passages of the source. Marks after values point to notes of the source that are not given here.
Biological target: T1, human sweet taste receptor (hT1R2/hT1R3) coupled to Gα15 (Homo sapiens, UniProt Q7RTX0+Q8TE23)
T1 construct: expressed in transfected cells
T1 sequence (Q8TE23 20-839): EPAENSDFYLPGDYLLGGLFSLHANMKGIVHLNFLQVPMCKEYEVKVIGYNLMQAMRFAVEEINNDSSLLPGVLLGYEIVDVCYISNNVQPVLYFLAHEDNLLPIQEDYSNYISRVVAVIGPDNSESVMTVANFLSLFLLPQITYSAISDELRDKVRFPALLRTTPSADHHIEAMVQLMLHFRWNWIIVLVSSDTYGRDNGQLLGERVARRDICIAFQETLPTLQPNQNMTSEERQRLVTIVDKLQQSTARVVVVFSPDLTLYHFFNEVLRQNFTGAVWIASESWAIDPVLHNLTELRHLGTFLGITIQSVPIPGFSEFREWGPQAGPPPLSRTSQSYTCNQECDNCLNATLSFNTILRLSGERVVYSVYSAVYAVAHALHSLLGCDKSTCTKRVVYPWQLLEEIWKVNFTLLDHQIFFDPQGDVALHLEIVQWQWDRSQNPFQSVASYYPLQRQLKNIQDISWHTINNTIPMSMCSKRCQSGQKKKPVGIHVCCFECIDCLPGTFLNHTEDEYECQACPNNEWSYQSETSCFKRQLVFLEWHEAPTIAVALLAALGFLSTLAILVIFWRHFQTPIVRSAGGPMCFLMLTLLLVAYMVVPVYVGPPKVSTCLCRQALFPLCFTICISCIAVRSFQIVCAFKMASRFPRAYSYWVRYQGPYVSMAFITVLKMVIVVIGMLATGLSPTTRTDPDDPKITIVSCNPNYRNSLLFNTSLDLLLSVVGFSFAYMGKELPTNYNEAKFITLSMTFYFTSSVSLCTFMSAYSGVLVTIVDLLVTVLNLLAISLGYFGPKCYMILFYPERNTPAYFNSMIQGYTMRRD
T1 sequence (Q7RTX0 21-852): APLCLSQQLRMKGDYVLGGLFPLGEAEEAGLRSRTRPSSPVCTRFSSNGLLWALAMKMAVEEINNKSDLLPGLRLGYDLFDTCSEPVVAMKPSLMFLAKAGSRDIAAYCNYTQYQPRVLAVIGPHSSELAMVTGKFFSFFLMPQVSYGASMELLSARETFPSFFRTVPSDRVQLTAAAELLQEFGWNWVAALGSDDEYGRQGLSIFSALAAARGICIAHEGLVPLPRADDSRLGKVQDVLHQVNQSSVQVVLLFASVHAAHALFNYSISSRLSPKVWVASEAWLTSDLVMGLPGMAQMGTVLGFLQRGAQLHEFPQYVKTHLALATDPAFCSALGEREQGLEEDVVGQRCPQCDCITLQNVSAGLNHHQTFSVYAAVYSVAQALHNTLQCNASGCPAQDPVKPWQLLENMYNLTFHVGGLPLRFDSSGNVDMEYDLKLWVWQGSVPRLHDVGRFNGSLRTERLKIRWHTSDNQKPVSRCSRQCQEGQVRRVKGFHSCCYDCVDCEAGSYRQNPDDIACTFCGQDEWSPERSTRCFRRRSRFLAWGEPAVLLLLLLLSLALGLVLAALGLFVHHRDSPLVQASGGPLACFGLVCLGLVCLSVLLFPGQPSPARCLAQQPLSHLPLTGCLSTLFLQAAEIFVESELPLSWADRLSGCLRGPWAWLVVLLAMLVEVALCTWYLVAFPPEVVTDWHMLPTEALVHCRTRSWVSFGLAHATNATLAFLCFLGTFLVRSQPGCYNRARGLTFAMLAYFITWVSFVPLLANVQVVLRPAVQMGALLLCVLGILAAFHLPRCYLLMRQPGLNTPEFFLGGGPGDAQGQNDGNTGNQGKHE
Assay: FLIPR calcium mobilization assay, R2/R3 U2OS cells transduced with Gα15 baculovirus
Format: cell-based
Settings: for ΔlogR FLIPR Mean: FLIPR-Gα15, operational model, logR minus sucralose logR; for Activity in FLIPR assay Emax: Gα15, top asymptote of dose-response normalized to 1 mM sucralose; for EC50: R2/R3 U2OS cells expressing Gα15; for Bias factor: inverse log of ΔΔlogR, FLIPR-Gα15 vs DMR; for ΔΔlogR Mean: ΔlogR FLIPR-Gα15 minus ΔlogR DMR; for fold difference DMR EC50 vs FLIPR EC50 (more potent in FLIPR): DMR EC50 over FLIPR-Gα15 EC50

[1] = read-out: Activity in FLIPR assay EC50
[2] = read-out: Activity in FLIPR assay pEC50 (converted)

| Structure (SMILES) | ΔlogR FLIPR Mean | Activity in FLIPR assay Emax | EC50 [1] | EC50 [2] | Bias factor | ΔΔlogR Mean | fold difference DMR EC50 vs FLIPR EC50 (more potent in FLIPR) |
| --- | --- | --- | --- | --- | --- | --- | --- |
| COC(=O)[C@H](Cc1ccccc1)NC(=O)[C@H](CC(=O)O)NCCC(C)(C)C [Neotame] | 1.65 | 116**** | 1600 nM | 1530 nM | 3.2 | 0.50 |  |
| CC(C)Oc1ccc(NC(=S)NCc2ccc[nH]2)cc1 [S819] | 3.11 | 181**** | 70 nM | 74.5 nM | 3.9 | 0.59 | about 10 times |
| CC(C)Oc1ccc(NC(=S)NCc2cccs2)cc1 [S5227] | 2.52 | 177**** | 300 nM | 335 nM | 4.8 | 0.68 | about 10 times |
